We go through 13 compounds from patent US20090054392A1, “NAPHTHYLPYRIMIDINE, NAPHTHYLPYRAZINE AND NAPHTHYLPYRIDAZINE ANALOGS AND THEIR USE AS AGONISTS OF THE WNT-BETA-CATENIN CELLULAR MESSAGING SYSTEM” (Wyeth, priority 2007, published 2009).

Where two headings read alike, the source gives them in different places.

In general, EC50 refers to the concentration needed to bring the measured effect to its halfway point.

For the data set, the system named is Dkk1-LRP5-TCF-Luciferase. The data set can be described thus: Functional Dkk1-LRP5-TCF-Luciferase Assay in U2OS Cells. To be noted: for fold induction at 2 µM / fold induction at 20 µM / EC50: Homo sapiens, U2OS; for A = MAX FOLD Induction/DMSO CONTROL: maximum fold induction over DMSO control.
Where [1] appears, read: read-out: B = TCF ACTIVITY/DMSO CONTROL Fold induction @ 2.0 uM, 2.0 uM compound.
[2] abbreviates: read-out: C = TCF ACTIVITY/DMSO CONTROL Fold induction @ 20.0 uM, 20.0 uM compound.

Take `Cc1ccc(S(=O)(=O)N[C@H]2CC[C@H](Nc3nccc(-c4ccc5ccccc5c4)n3)CC2)cc1` [4-methyl-N-(trans-4-{[4-(2-naphthyl)pyrimidin-2-yl]amino}cyclohexyl)benzenesulfonamide]: the “A = MAX FOLD Induction/DMSO CONTROL” value is recorded as 1.230 fold. Also, the fold induction at 2 µM under setting [1] was 1.78. The fold induction at 20 µM under setting [2] came out at 1.13.

Take `[N-]=[N+]=NCCC1CCN(c2nccc(-c3ccc4ccccc4c3)n2)CC1` [2-[4-(2-azidoethyl)piperidin-1-yl]-4-(2-naphthyl)pyrimidine]: the fold induction at 2 µM under setting [1] is 1. Also, the fold induction at 20 µM under setting [2] turned out to be 1.67.

In the case of `CC(C)CNc1nccc(-c2ccc3ccccc3c2)n1` [N-isobutyl-4-(2-naphthyl)pyrimidin-2-amine], the fold induction at 2 µM under setting [1] is 1.77.

For `OC1CCN(CC2CCN(c3nccc(-c4ccc5ccccc5c4)n3)C2)CC1` (stereo not shown) [1-({1-[4-(2-naphthyl)pyrimidin-2-yl]pyrrolidin-3-yl}methyl)piperidin-4-ol], a half-maximal effect (EC50) was put at 5.53 µM and the “A = MAX FOLD Induction/DMSO CONTROL” value turned out to be 2.680 fold. For the same compound, the fold induction at 2 µM under setting [1] turned out to be 3.52. Under setting [2], the fold induction at 20 µM worked out at 0.1.

Regarding `CC(=O)NCC1CCN(c2nccc(-c3ccc4ccccc4c3)n2)CC1` [N-({1-[4-(2-naphthyl)pyrimidin-2-yl]piperidin-4-yl}methyl)acetamide], the EC50 is 1.9 µM and the “A = MAX FOLD Induction/DMSO CONTROL” value is listed as 2.273 fold. For the same compound, the “C = TCF ACTIVITY/DMSO CONTROL Fold induction @ 20.0 uM” value (20.0 uM compound, 20 µM) worked out at 2.500 fold. For the same compound, the fold induction at 2 µM under setting [1] was found to be 1.63. Further, the fold induction at 20 µM under setting [2] was 2.71.

With `NC(=O)N1CCC(Nc2nccc(-c3ccc4ccccc4c3)n2)CC1` [4-{[4-(2-naphthyl)pyrimidin-2-yl]amino}piperidine-1-carboxamide], the EC50 was found to be 5.28 µM and the “A = MAX FOLD Induction/DMSO CONTROL” value was found to be 3.552 fold. Besides, the fold induction at 2 µM under setting [1] is 1.31. Moreover, the fold induction at 20 µM under setting [2] was determined as 3.17.

With `CCOC(=O)N(CCN1CCN(c2nccc(-c3ccc4ccccc4c3)n2)CC1)C(=O)OCC` [diethyl (2-{4-[4-(2-naphthyl)pyrimidin-2-yl]piperazin-1-yl}ethyl)imidodicarbonate], the fold induction at 2 µM under setting [1] amounted to 1.72.

On to `c1ccc2cc(-c3ccnc(N4CC5CCNC5C4)n3)ccc2c1` (stereo not shown) [5-(4-naphthalen-2-ylpyrimidin-2-yl)octahydropyrrolo[3,4-b]pyrrole], for which the fold induction at 2 µM under setting [1] was found to be 1.5.

In the case of `CC(C)C(=O)N(C)CCN(C)[C@@H]1CCN(c2nccc(-c3ccc4ccccc4c3)n2)C1` [N,2-dimethyl-N-[2-(methyl{(3R)-1-[4-(2-naphthyl)pyrimidin-2-yl]pyrrolidin-3-yl}amino)ethyl]propanamide], the fold induction at 20 µM under setting [2] came to 1.5.

For `c1ccc2cc(-c3ccnc(N4CCC5(CC4)OCCO5)n3)ccc2c1` [8-[4-(2-naphthyl)pyrimidin-2-yl]-1,4-dioxa-8-azaspiro[4.5]decane], the fold induction at 2 µM (read-out: B = TCF ACTIVITY/DMSO CONTROL Fold induction @ 2.0 uM) was 1.5. Further, for the setting “read-out: C = TCF ACTIVITY/DMSO CONTROL Fold induction @ 20.0 uM”, the fold induction at 20 µM was 1.74.

With `CCN(CC)C(=O)N1CCC(N(C)c2nccc(-c3ccc4ccccc4c3)n2)CC1` [N,N-diethyl-4-{methyl[4-(2-naphthyl)pyrimidin-2-yl]amino}piperidine-1-carboxamide], the fold induction at 2 µM under setting [1] turned out to be 0.86. The fold induction at 20 µM under setting [2] is 1.32.

For `O=C(N[C@H]1CCN(c2nccc(-c3ccc4ccccc4c3)n2)C1)C(F)(F)F` [2,2,2-trifluoro-N-{(3S)-1-[4-(2-naphthyl)pyrimidin-2-yl]pyrrolidin-3-yl}acetamide], the EC50 was 25.9 µM and the “A = MAX FOLD Induction/DMSO CONTROL” value turned out to be 3.620 fold. The fold induction at 2 µM under setting [1] stood at 1.59. The fold induction at 20 µM under setting [2] was determined as 1.66.

`CCN(CC)C(=O)N(C)CCN(C)[C@@H]1CCN(c2nccc(-c3ccc4ccccc4c3)n2)C1` [1,1-diethyl-3-methyl-3-[2-(methyl{(3R)-1-[4-(2-naphthyl)pyrimidin-2-yl]pyrrolidin-3-yl}amino)ethyl]urea]: the fold induction at 2 µM under setting [1] was 1.93.
